Measurements published in US12171752B2, “Methods of treating post-COVID condition(s)” (priority 2022, dated 2024).

Columns and labels:
[1] = tested on: TNFα; experiment: Spike protein-mediated TNFα release from human monocyte-derived microglia (iMDM); format: cell-based; details: for Dose dependence of TNFα reduction: ibudilast 1, 10 or 100 μM
[2] = tested on: IL-6; experiment: Spike protein-mediated IL-6 release from human monocyte-derived microglia (iMDM); format: cell-based
[3] = tested on: MIF; experiment: Plasma level of MIF; details: found by the inventors
[4] = biological target: T1, macrophage inhibitory factor (MIF) (Homo sapiens, UniProt P14174); details: Cho et al., PNAS-USA 2010; cited from earlier work
T1 sequence (P14174 2-115 limits assumed): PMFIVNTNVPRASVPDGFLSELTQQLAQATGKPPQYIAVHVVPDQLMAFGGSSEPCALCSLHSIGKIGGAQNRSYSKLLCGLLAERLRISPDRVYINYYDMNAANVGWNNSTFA

[5] = biological target: PDE 3A (Homo sapiens, UniProt Q14432); details: Gibson et al., Eur J Pharmacol 2006; cited from earlier work
Chain of PDE 3A (Q14432 whole entry): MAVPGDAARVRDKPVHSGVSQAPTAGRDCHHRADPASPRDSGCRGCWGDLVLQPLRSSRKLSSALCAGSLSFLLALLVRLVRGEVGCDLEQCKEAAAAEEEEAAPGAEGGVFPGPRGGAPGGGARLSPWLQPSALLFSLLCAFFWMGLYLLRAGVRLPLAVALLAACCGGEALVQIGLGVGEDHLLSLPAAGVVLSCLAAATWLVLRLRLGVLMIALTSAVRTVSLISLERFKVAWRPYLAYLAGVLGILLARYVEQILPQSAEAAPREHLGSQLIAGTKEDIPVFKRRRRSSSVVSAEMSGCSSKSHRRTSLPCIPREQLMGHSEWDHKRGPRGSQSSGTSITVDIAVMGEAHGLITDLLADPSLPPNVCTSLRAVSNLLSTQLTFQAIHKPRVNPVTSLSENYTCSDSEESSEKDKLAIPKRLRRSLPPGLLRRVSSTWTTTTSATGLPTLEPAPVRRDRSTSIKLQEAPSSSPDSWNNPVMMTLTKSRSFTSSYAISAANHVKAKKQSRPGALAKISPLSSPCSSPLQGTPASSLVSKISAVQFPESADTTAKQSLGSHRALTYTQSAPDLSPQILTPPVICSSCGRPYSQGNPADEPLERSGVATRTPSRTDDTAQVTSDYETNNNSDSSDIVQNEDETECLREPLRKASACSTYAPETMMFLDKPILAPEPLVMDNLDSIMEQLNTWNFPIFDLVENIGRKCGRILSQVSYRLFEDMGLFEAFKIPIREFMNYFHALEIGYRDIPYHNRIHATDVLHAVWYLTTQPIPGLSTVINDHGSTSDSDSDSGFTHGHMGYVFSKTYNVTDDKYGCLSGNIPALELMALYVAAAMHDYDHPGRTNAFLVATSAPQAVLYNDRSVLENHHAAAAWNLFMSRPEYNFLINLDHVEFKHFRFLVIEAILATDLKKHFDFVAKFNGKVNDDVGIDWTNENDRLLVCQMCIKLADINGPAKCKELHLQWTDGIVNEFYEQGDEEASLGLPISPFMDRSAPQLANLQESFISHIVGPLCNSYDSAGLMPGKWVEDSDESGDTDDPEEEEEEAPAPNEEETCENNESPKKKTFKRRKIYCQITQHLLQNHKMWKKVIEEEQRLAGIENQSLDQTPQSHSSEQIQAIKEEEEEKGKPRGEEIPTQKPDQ

[6] = tested on: PDE 4; details: Gibson et al., Eur J Pharmacol 2006; cited from earlier work
[7] = biological target: PDE 10A1 (Homo sapiens, UniProt Q9Y233); details: Gibson et al., Eur J Pharmacol 2006; cited from earlier work
Chain of PDE 10A1 (Q9Y233 1-779 isoform Q9Y233-1): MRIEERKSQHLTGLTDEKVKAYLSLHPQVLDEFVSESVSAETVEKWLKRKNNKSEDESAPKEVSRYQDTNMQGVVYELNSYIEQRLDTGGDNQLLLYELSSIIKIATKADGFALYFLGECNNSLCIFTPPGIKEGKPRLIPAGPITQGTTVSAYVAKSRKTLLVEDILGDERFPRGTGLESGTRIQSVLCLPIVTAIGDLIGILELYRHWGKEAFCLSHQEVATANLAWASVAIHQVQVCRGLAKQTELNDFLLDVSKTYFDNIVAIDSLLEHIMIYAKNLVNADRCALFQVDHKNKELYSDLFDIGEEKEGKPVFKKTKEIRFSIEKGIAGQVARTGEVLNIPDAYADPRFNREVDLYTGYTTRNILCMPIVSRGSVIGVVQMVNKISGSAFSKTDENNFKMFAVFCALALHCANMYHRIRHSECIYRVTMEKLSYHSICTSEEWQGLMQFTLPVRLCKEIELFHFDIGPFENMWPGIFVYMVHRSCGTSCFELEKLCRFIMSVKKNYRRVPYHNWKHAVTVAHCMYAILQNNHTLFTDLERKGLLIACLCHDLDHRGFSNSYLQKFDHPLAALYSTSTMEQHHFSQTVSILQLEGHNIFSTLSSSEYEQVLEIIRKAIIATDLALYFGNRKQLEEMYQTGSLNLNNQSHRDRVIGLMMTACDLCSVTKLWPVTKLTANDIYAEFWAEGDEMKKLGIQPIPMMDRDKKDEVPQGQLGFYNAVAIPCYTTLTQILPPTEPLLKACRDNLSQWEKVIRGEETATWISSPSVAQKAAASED

[8] = biological target: PDE 11A1 (Homo sapiens, UniProt Q9HCR9); details: Gibson et al., Eur J Pharmacol 2006; cited from earlier work
Chain of PDE 11A1 (Q9HCR9 445-933): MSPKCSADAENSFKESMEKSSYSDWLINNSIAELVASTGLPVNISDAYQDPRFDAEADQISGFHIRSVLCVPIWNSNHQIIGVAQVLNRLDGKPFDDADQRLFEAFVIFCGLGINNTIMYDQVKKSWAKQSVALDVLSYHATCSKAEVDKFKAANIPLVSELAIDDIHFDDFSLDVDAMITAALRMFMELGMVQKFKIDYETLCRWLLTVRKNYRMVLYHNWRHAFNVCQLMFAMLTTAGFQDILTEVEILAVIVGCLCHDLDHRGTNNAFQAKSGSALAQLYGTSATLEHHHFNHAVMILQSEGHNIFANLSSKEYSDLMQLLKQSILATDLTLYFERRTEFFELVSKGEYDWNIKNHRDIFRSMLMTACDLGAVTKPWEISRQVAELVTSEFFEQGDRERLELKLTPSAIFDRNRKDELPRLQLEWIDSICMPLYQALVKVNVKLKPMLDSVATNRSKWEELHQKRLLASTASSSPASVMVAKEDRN

[9] = biological target: toll-like receptor-4 (TLR4) (Homo sapiens, UniProt O00206); details: Yang et al., Cell Death and Disease 2016; cited from earlier work
Chain of toll-like receptor-4 (TLR4) (O00206 24-839, species assumed): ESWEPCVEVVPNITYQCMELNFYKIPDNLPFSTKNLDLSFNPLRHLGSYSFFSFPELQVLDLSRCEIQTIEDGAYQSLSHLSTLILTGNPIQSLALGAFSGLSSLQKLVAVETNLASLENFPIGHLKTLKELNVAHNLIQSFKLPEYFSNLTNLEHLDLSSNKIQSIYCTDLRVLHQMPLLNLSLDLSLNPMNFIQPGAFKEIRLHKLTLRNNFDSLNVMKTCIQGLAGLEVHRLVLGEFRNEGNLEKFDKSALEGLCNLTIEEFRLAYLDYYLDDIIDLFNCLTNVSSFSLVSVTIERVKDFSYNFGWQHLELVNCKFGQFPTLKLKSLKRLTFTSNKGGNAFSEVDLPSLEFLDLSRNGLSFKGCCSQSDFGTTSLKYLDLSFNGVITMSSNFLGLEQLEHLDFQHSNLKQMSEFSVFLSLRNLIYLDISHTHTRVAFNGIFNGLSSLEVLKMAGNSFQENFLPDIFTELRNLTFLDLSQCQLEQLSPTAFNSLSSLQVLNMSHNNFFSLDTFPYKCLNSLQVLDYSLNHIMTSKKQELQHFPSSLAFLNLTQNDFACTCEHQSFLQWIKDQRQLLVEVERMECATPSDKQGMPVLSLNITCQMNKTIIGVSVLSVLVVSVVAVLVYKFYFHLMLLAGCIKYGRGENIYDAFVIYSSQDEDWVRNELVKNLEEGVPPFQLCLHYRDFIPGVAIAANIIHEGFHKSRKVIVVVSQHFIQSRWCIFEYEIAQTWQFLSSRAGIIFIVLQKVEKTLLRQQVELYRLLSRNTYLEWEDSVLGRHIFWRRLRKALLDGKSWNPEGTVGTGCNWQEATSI

[10] = Sanftner et al., Xenobiotica 2009; cited from earlier work
[11] = tested on: leukotriene D4; details: reported; cited from earlier work
[12] = tested on: PAF; details: reported; cited from earlier work

## CC(C)C(=O)c1c(C(C)C)nn2ccccc12 [Ibudilast, 2-methyl-1-(2-(1-methylethyl)pyrazolo (1,5-a)pyridin-3-yl) 1-propanone]
[1]; "Omicron" spike protein (1.0 μg/ml) with cross-linker, all 3 donors
  Dose dependence of TNFα reduction: Dose-dependent curves are observed
[1]; "Omicron" spike protein (5.0 μg/ml) with cross-linker, donor 3
  Dose dependence of TNFα reduction: Dose-dependent curves are observed
[1]; "Omicron" spike protein, under certain test conditions, FIGS. 6-8
  TNFα levels elevated by "Omicron" spike protein: reduction by ibudilast was evident under certain test conditions
[1]; all donors, FIGS. 1-3
  (LPS+spike protein)-evoked levels of TNFα: reduced
[1]; iMDM, […], ibudilast 1.0, 10, 100 μM
  TNFα levels: reduce
[2]; donors 2 and 3, FIGS. 4-5
  (LPS+spike protein)-evoked levels of IL-6: reduced
[2]; iMDM, "low" concentration (10 ng/mL) of LPS added with the spike proteins (all variants), ibudilast 1.0, 10, 100 μM
  IL-6 levels: reduce
[3]
  plasma level of MIF: lowers plasma level of MIF
[4]
  HPP tautomerase activity of MIF: allosteric inhibitor
[5]
  PDE 3A inhibition: selective inhibitor
[6]
  PDE 4 inhibition: selective inhibitor
[7]
  PDE 10A1 inhibition: selective inhibitor
[8]
  PDE 11A1 inhibition: selective inhibitor
[9]
  TLR4 antagonistic activity: antagonistic activity
[10]
  CNS penetration: good CNS penetration
[11]
  leukotriene D4 antagonistic activity: antagonistic activities
[12]
  PAF antagonistic activity: antagonistic activities
